Data published in patent publication US9221791B2, “Metalloenzyme inhibitor compounds” (Viamet Pharmaceuticals, Inc., priority 2011, dated 2015).
In brackets after ≈: the same amount, converted by molar mass.

Assays:
[1] = system: Septoria tritici (ATCC 26517); test: Minimum Inhibitory Concentration (MIC) (Septoria tritici), CLSI-based microdilution; format: cell-based; conditions: Zymoseptoria tritici, ATCC26517, 168 h, S. tritici ATCC 26517; 22° C. for seven days; 50% reduction in growth; read-out: Septoria Rating (MIC)
Procedure: C. Minimum Inhibitory Concentration (MIC) (Septoria tritici)
Compounds of the present disclosure were assessed for their ability to inhibit the growth of a common strain of the fungal plant pathogen Septoria tritici (ATCC 26517) using a procedure based on a Clinical and Laboratory Standards Institute (CLSI) microdilution assay protocol for filamentous fungi.
Stock solutions of the test compounds and standards were prepared in DMSO at 6400 μg/mL. Each stock solution was used to prepare a 2-fold dilution series ranging from 16 to 0.016 μg/mL (total of 11 compound concentrations) in RPMI-1640 (Roswell Park Memorial Institute) medium containing 3-(N-morpholino)propanesulfonic acid (MOPS) buffer and 2% DMSO. A 100 μL aliquot of the dilutions was added to columns 1 (16 μg/mL compound) through 11 (0.016 μg/mL compound) of a 96-well microtiter plate. This format was replicated in a second row of the microtiter plate. Thus, each microtiter plate could include 11 concentrations of four test or control compounds replicated twice. A 100 μL aliquot of RPMI-1640/MOPS/2% DMSO medium was added to column 12 (no compound control) of the microtiter plate.
A fresh culture of S. tritici was used to prepare a solution of approximately 5×10^4 colony-forming units per milliliter (cfu/mL) in RPMI/MOPS medium without DMSO. A 100 µL aliquot of this solution was added to all 96 wells in the microtiter plate. […] The assay plates were incubated at 22° C. for seven days in the dark without shaking.
In each case of Table 3 the Septoria rating scale is as follows: […]

[2] = system: Puccinia recondita tritici = Puccinia triticina; test: Fungicidal activity vs. leaf rust on wheat plants; format: in vivo; conditions: wheat (variety Yuma) sprayed at 50 ppm, inoculated on the following day, evaluated 7-9 days later; read-out: Puccinia Rating (% Disease Control @ 50 ppm)
Description: D. Evaluation of Fungicidal Activity Vs. Leaf Rust (Causal Agent Puccinia recondita tritici=Puccinia triticina; Bayer Code PUCCRT). […] Each pot contained 3-8 seedlings. These plants were sprayed until wet with the formulated test compounds. The compounds were formulated at 50 ppm in 10 vol. % acetone plus 90 vol. % Triton X water (deionized water 99.99 wt %+0.01 wt % Triton X100), giving a “formulated test compound.” Formulated test compounds were applied to plants using a turn table sprayer fitted with two opposing air atomization nozzles which delivered approximately 1500 L/ha of spray volume. On the following day, the leaves were inoculated with an aqueous spore suspension of Puccinia recondita tritici and the plants were kept in high humidity overnight to permit spores to germinate and infect the leaf. The plants were then transferred to a greenhouse until disease developed on untreated control plants. Disease severity was evaluated 7-9 days later, depending on the speed of disease development. In each case of Table 3, the Puccinia rating scale is as follows: […]

| SMILES | MIC [1] | pest or weed control at 50 ppm [2] |
| --- | --- | --- |
| OC(Cn1cnnn1)(c1ccc(F)cc1F)C(F)(F)c1ccc(-c2nccs2)cn1 (stereo not drawn) [Compound 38, 2-(2,4-Difluorophenyl)-1,1-difluoro-3-(1H-tetrazol-1-yl)-1-(5-(thiazol-2-yl)pyridin-2-yl)propan-2-ol] | ≤ 0.5 µg/mL | 80 to 100% |
| OC(Cn1cnnn1)(c1ccc(Cl)cc1F)C(F)(F)c1ccc(C2CC2)cn1 (stereo not drawn) [Compound 40, 2-(4-Chloro-2-fluorophenyl)-1-(5-cyclopropylpyridin-2-yl)-1,1-difluoro-3-(1H-tetrazol-1-yl)propan-2-ol] | ≤ 0.5 µg/mL | 80 to 100% |
| OC(Cn1cnnn1)(c1ccc(Cl)cc1F)C(F)(F)c1ccc(-n2nccn2)cn1 (stereo not drawn) [Compound 28, 1-(5-(2H-1,2,3-Triazol-2-yl)pyridin-2-yl)-2-(4-chloro-2-fluorophenyl)-1,1-difluoro-3-(1H-tetrazol-1-yl)propan-2-ol] | ≤ 0.5 µg/mL | 80 to 100% |
| OC(Cn1cnnn1)(c1ccc(F)cc1F)C(F)(F)c1ccc(COC(F)F)cn1 (stereo not drawn) [Compound 92, 1-(5-((difluoromethoxy)methyl)pyridin-2-yl)-2-(2,4-difluorophenyl)-1,1-difluoro-3-(1H-tetrazol-1-yl)propan-2-ol] | ≤ 0.5 µg/mL | 80 to 100% |
| OC(Cn1cnnn1)(c1ccc(F)cc1F)C(F)(F)c1ccc(Cc2ccc(OC(F)(F)F)cc2)cn1 (stereo not drawn) [Compound 76, 2-(2,4-Difluorophenyl)-1,1-difluoro-3-(1H-tetrazol-1-yl)-1-(5-(4-(trifluoromethoxy)benzyl)pyridin-2-yl)propan-2-ol] | ≤ 0.5 µg/mL | 80 to 100% |
| OC(Cn1cnnn1)(c1ccc(F)cc1F)C(F)(F)c1ccc(-c2ccc(C(F)(F)F)cn2)cn1 (stereo not drawn) [Compound 94, 2-(2,4-difluorophenyl)-1,1-difluoro-3-(1H-tetrazol-1-yl)-1-(5-(trifluoromethyl)-[2,3′-bipyridin]-6′-yl)propan-2-ol] | ≤ 0.5 µg/mL | 80 to 100% |
| OC(Cn1cnnn1)(c1ccc(F)cc1F)C(F)(F)c1ccc(Cc2ccc(C(F)(F)F)cc2)cn1 (stereo not drawn) [Compound 73, 2-(2,4-Difluorophenyl)-1,1-difluoro-3-(1H-tetrazol-1-yl)-1-(5-(4-(trifluoromethyl)benzyl)pyridin-2-yl)propan-2-ol] | ≤ 0.5 µg/mL | 80 to 100% |
| OC(Cc1cnco1)(c1ccc(F)cc1F)C(F)(F)c1ccc(Br)cn1 (stereo not drawn) [Compound 83, 1-(5-Bromopyridin-2-yl)-2-(2,4-difluorophenyl)-1,1-difluoro-3-(oxazol-5-yl)propan-2-ol] | ≤ 0.5 µg/mL | 80 to 100% |
| N#Cc1ccc(OCc2ccc(C(F)(F)C(O)(Cn3cnnn3)c3ccc(F)cc3F)nc2)cc1 (stereo not drawn) [Compound 79, 4-((6-(2-(2,4-Difluorophenyl)-1,1-difluoro-2-hydroxy-3-(1H-tetrazol-1-yl)propyl)pyridin-3-yl)methoxy)benzonitrile] | ≤ 0.5 µg/mL | 80 to 100% |
| O=C(c1ccc(F)cc1)c1ccc(C(F)(F)C(O)(Cn2cnnn2)c2ccc(F)cc2F)nc1 (stereo not drawn) [Compound 69, (6-(2-(2,4-Difluorophenyl)-1,1-difluoro-2-hydroxy-3-(1H-tetrazol-1-yl)propyl)pyridin-3-yl)(4-fluorophenyl)methanone] | ≤ 0.5 µg/mL | 80 to 100% |
| OC(Cn1cnnn1)(c1ccc(F)cc1F)C(F)(F)c1ccc(COc2ccc(C(F)(F)F)cn2)cn1 (stereo not drawn) [Compound 99, 2-(2,4-difluorophenyl)-1,1-difluoro-3-(1H-tetrazol-1-yl)-1-(5-(((5-(trifluoromethyl)pyridin-2-yl)oxy)methyl)pyridin-2-yl)propan-2-ol] | ≤ 0.5 µg/mL | 80 to 100% |
| O=C(c1ccc(OCC(F)(F)F)cc1)c1ccc(C(F)(F)C(O)(Cn2cnnn2)c2ccc(F)cc2F)nc1 (stereo not drawn) [Compound 68, (6-(2-(2,4-Difluorophenyl)-1,1-difluoro-2-hydroxy-3-(1H-tetrazol-1-yl)propyl)pyridin-3-yl)(4-(2,2,2-trifluoroethoxy)phenyl)methanone] | ≤ 0.5 µg/mL | 80 to 100% |
| OC(Cn1cnnn1)(c1ccc(F)cc1F)C(F)(F)c1ccc(Br)cn1 (stereo not drawn) [Compound 1, 1-(5-Bromopyridin-2-yl)-2-(2,4-difluorophenyl)-1,1-difluoro-3-(1H-tetrazol-1-yl)propan-2-ol] | ≤ 0.5 µg/mL | 80 to 100% |
| Cc1ccc(C(F)(F)C(O)(Cn2cnnn2)c2ccc(F)cc2F)nc1 (stereo not drawn) [Compound 25, 2-(2,4-Difluorophenyl)-1,1-difluoro-1-(5-methylpyridin-2-yl)-3-(1H-tetrazol-1-yl)propan-2-ol] | 1.5 µg/mL (≈ 4.08 µM) | 80 to 100% |
| CCOCCCc1ccc(C(F)(F)C(O)(Cn2cnnn2)c2ccc(F)cc2F)nc1 (stereo not drawn) [Compound 53, 2-(2,4-Difluorophenyl)-1-(5-(3-ethoxypropyl)pyridin-2-yl)-1,1-difluoro-3-(1H-tetrazol-1-yl)propan-2-ol] | ≤ 0.5 µg/mL | 80 to 100% |
| O=C(c1ccc(C(F)(F)F)cc1)c1ccc(C(F)(F)C(O)(Cn2cnnn2)c2ccc(F)cc2F)nc1 (stereo not drawn) [Compound 66, (6-(2-(2,4-Difluorophenyl)-1,1-difluoro-2-hydroxy-3-(1H-tetrazol-1-yl)propyl)pyridin-3-yl)(4-(trifluoromethyl)phenyl)methanone] | ≤ 0.5 µg/mL | 80 to 100% |
| OC(Cn1cnnn1)(c1ccc(F)cc1F)C(F)(F)c1ccc(Cc2ccc(Cl)cc2)cn1 (stereo not drawn) [Compound 77, 1-(5-(4-Chlorobenzyl)pyridin-2-yl)-2-(2,4-difluorophenyl)-1,1-difluoro-3-(1H-tetrazol-1-yl)propan-2-ol] | ≤ 0.5 µg/mL | 80 to 100% |
| OC(Cn1cnnn1)(c1ccc(Cl)cc1F)C(F)(F)c1ccc(F)cn1 (stereo not drawn) [Compound 27, 2-(4-Chloro-2-fluorophenyl)-1,1-difluoro-1-(5-fluoropyridin-2-yl)-3-(1H-tetrazol-1-yl)propan-2-ol] | 1.5 µg/mL (≈ 3.87 µM) | 80 to 100% |
| OC(Cn1cnnn1)(c1ccc(F)cc1F)C(F)(F)c1ccc(-c2ccc(C(F)(F)F)s2)cn1 (stereo not drawn) [Compound 34, 2-(2,4-Difluorophenyl)-1,1-difluoro-3-(1H-tetrazol-1-yl)-1-(5-(5-(trifluoromethyl)thiophen-2-yl)pyridin-2-yl)propan-2-ol] | 1.5 µg/mL (≈ 2.98 µM) | 80 to 100% |
| OC(Cn1cnnn1)(c1ccc(F)cc1F)C(F)(F)c1ccc(-c2ccc(Cl)cn2)cn1 (stereo not drawn) [Compound 93, 1-(5-chloro-[2,3′-bipyridin]-6′-yl)-2-(2,4-difluorophenyl)-1,1-difluoro-3-(1H-tetrazol-1-yl)propan-2-ol] | ≤ 0.5 µg/mL | 80 to 100% |
| COc1ccc(-c2ccc(C(F)(F)C(O)(Cn3cnnn3)c3ccc(F)cc3F)nc2)s1 (stereo not drawn) [Compound 32, 2-(2,4-Difluorophenyl)-1,1-difluoro-1-(5-(5-methoxythiophen-2-yl)pyridin-2-yl)-3-(1H-tetrazol-1-yl)propan-2-ol] | ≤ 0.5 µg/mL | 40 to 59% |
| N#Cc1ccc(C(F)(F)c2ccc(C(F)(F)C(O)(Cn3cnnn3)c3ccc(F)cc3F)nc2)cc1 (stereo not drawn) [Compound 103, 4-((6-(2-(2,4-difluorophenyl)-1,1-difluoro-2-hydroxy-3-(1H-tetrazol-1-yl)propyl)pyridin-3-yl)difluoromethyl)benzonitrile] | 1.5 to 4 µg/mL (≈ 2.97 to 7.93 µM) | 80 to 100% |
| O=C(c1ccc(Cl)cc1)c1ccc(C(F)(F)C(O)(Cn2cnnn2)c2ccc(F)cc2F)nc1 (stereo not drawn) [Compound 67, (4-Chlorophenyl)(6-(2-(2,4-difluorophenyl)-1,1-difluoro-2-hydroxy-3-(1H-tetrazol-1-yl)propyl)pyridin-3-yl)methanone] | ≤ 0.5 µg/mL | 80 to 100% |
| OC(Cn1cnnn1)(c1ccc(F)cc1F)C(F)(F)c1ccc(-c2ccc(C(F)(F)F)nc2)cn1 (stereo not drawn) [Compound 35, 2-(2,4-Difluorophenyl)-1,1-difluoro-3-(1H-tetrazol-1-yl)-1-(6′-(trifluoromethyl)-[3,3′-bipyridin]-6-yl)propan-2-ol] | 1.5 to 4 µg/mL (≈ 3.01 to 8.03 µM) |  |
| OC(Cn1cnnn1)(c1ccc(F)cc1F)C(F)(F)c1cc(F)ccn1 (single isomer, unassigned) [ent-13, 2-(2,4-Difluorophenyl)-1,1-difluoro-1-(4-fluoropyridin-2-yl)-3-(1H-tetrazol-1-yl)propan-2-ol] | 1.5 µg/mL (≈ 4.04 µM) |  |
